# Test results taken from patent US20050032787A1, “Pheny (alkyl)carboxylic acid derivatives and dionic phenylalkylheterocyclic derivatives and their use as medicines with serum glucose and/or serum lipid lowering activity” (priority 2002, published 2005).
# Counter-ions that a name gives are not always drawn. Marks after values point to notes of the source that are not given here.
# Experiments:
# 3T3-L1 cells = assay: Determination of glucose consumption in differentiated 3T3-L1 cells; type: cell-based, mouse; settings: 22 hours, glucose 25 mM, insulin 0.25 nM, concentrations assayed 1, 5, 10, 25 μM
# Procedure: Determination of Glucose Consumption in 3T3-L1 Cells
# Glucose consumption was assessed in differentiated 3T3-L1 cells.
# Mouse fibroblasts (3T3-L1) were seeded at a density of 5×10^3/cm^2 and cultured on 12-well plates in 1 ml of DMEM containing glucose 25 mM and added with 10% CS, glutamine 4 mM, pyruvate 1 mM, penicillin 50 U/ml, and streptomycin 50 μg/ml, in an atmosphere humidified with 5% CO2 at 37° C.
# Two to three days after confluence, differentiation was induced with the addition of 1.5 ml of DMEM containing 3-isobutyl-1-methylxanthine (IBMX) 0.5 mM, dexamethazone 1 μM and porcine insulin 10 μg/ml in glucose 25 mM and 10% FBS.
# After 2 days, the cells were exposed to the same medium without IBMX and dexamethazone for another 2 days. […]
# The cells were used 10-12 days after induction of differentiation, as monitored by evaluating triglyceride accumulation. […]
# The analysis of the glucose in the medium was done with the aid of a Cobas Mira S autoanalyzer (Roche), using the HK 125 Glucose Kit (ABX Diagnostics). The glucose concumprion stimulated by the products was evaluated as % increase compared to the control compound. […]
# C57BL/KsJ db/db mice = assay: Antidiabetic and serum lipid lowering activity in db/db mice; settings: oral twice daily for a fortnight, rosiglitazone 5 mg/kg, Example 22 25 mg/kg, vs control; for Reduction of glucose levels % / Reduction of triglyceride levels %: serum 7 hours after last treatment; for Change in GPT levels % / Change in HDL-cholesterol levels %: serum
Compound,melting point [°C],other results
"COC(=O)C(=Cc1ccc(OCCn2ccc3ccccc32)cc1)C(=O)OC [Example 3, dimethyl 4-[2-(1-indolyl]ethoxy]benzylidenemalonate]",68 to 70,
"O=C(O)C(Cc1ccc(OCCn2ccc3ccccc32)cc1)C(=O)O [Example 5, 4-[2-(1-indolyl)ethoxy]benzylmalonic acid]",112 to 114,
"COC(=O)CCc1ccc(OCCn2ccc3ccccc32)cc1 [Example 8, methyl 3-[4-[2-(1-indolyl)ethoxy]phenyl]-propanoate]",85,
"COC(=O)Cc1ccc(OCCn2ccc3ccccc32)cc1 [Example 9, methyl 2-[4-[2-(1-indolyl)ethoxy]phenyl]acetate]",50 to 52,
"COC(=O)C(O)Cc1ccc(OCCn2ccc3ccccc32)cc1 (centres unmarked) [Example 12, methyl 2-hydroxy-3-[4-[2-(1-indolyl)ethoxy]-phenyl]propanoate]",70 to 72,
"O=C1NC(=O)C(=Cc2ccc(OCCc3ccc(Cl)cc3)cc2)S1 [Example 20, 5-[4-[2-(4-chlorophenyl)ethoxy]phenylmethylene]thiazolidine-2,4-dione]",202 to 203,
"O=C1NC(=O)C(Cc2ccc(OCCc3ccc(Cl)cc3)cc2)S1 (centres unmarked) [Example 21, 5-[4-[2-(4-chlorophenyl)ethoxy]phenylmethyl]-thiazolidine-2,4-dione]",147 to 148,
"COC(=O)C(Cc1cccc(OCCc2ccc(Cl)cc2)c1)C(=O)OC [Example 22, dimethyl 3-[2-(4-chlorophenyl)ethoxy]-benzylmalonate]",,lowest concentration of those assayed to induce a 40% increase in glucose consumption (3T3-L1 cells): 1 µM; Weight gain % (C57BL/KsJ db/db mice): +16 ▴ %; Reduction of glucose levels % (C57BL/KsJ db/db mice): −32 Δ %; Reduction of triglyceride levels % (C57BL/KsJ db/db mice): −47 ▴ %; Change in GPT levels % (C57BL/KsJ db/db mice): +38 ▴ %; Change in HDL-cholesterol levels % (C57BL/KsJ db/db mice): +37 ▴ %
"O=C1NC(=O)C(=Cc2cccc(OCCc3ccc(Cl)cc3)c2)S1 [Example 46, 5-[3-[2-(4-chlorophenyl)ethoxy]phenylmethylene]thiazolidine-2,4-dione]",186 to 187,
"O=C1NC(=O)C(Cc2cccc(OCCc3ccc(Cl)cc3)c2)S1 (centres unmarked) [Example 47, 5-[3-[2-(4-chlorophenyl)ethoxy]phenylmethyl]thiazolidine-2,4-dione]",90 to 91,
"CN(CCOc1ccc(CC2SC(=O)NC2=O)cc1)c1ccccn1 (centres unmarked) [Rosiglitazone, rosiglitazone, reference compound]",,lowest concentration of those assayed to induce a 40% increase in glucose consumption (3T3-L1 cells): 5 µM; Reduction of glucose levels % (C57BL/KsJ db/db mice): −36 Δ %; Reduction of triglyceride levels % (C57BL/KsJ db/db mice): −41 ▴ %; Change in GPT levels % (C57BL/KsJ db/db mice): +117 ▴ %; Change in HDL-cholesterol levels % (C57BL/KsJ db/db mice): −7%

# The next lines start with results.
melting point [°C],Compound,other results
149 to 151,CCOC(=O)[C@H](Cc1ccc(OC(=O)NCc2ccc(OC)cc2)cc1)NC(=O)c1ccccc1,
84,COC(=O)C(Cc1ccc(OC(=O)Nc2ccc(Cl)cc2Cl)cc1)C(=O)OC,
125 to 127,COC(=O)C(Cc1ccc(OC(=O)Nc2ccc(Cl)cc2)cc1)C(=O)OC,
128 to 130,COC(=O)C(Cc1ccc(OC(=O)Nc2ccc([N+](=O)[O-])cc2)cc1)C(=O)OC,
62 to 64,COC(=O)C(Cc1cccc(OC(=O)NCc2ccc(OC)cc2)c1)C(=O)OC,
90 to 92,CCCCc1ccc(NC(=O)Oc2ccc(CC(C(=O)OC)C(=O)OC)cc2)cc1,
79 to 80,COC(=O)C(Cc1cccc(OC(=O)Nc2ccc(Cl)cc2)c1)C(=O)OC,
78.6,COC(=O)C(Cc1ccc(OC(=O)NCc2ccc(OC)cc2)cc1)C(=O)OC (as salt: malonate),
68.5,"COC(=O)C(Cc1ccc(OCCc2ccc3ccccc3c2)cc1)C(=O)OC [Example 29, dimethyl 4-[2-(2-naphthyl)ethoxy]benzyl-malonate]",
